The test system of data set [1] is breast cancer 4T1.2-luc cells (乳腺癌4T1.2-luc细胞). The experiment in a line: Bioluminescence imaging in mouse breast cancer bone metastasis model. Format: in vivo. The following applies: 0.44mg/ml epirubicin alone, i.p., 5ml/kg, every 3 days.
Data set [2] shares this test system. Kind of data set: X-ray CT of hind limb bones in mouse bone metastasis model. Format: in vivo. As to conditions: 0.44mg/ml epirubicin alone, i.p.
Data set [3] has the same test system. Kind of data set: HE staining of bone sections in mouse bone metastasis model. The data set is classed as in vivo. As to conditions: 0.44mg/ml epirubicin alone; Fig. 7H.
The subject of another data set is osteoclasts (破骨细胞). The experiment in a line: TRAP staining (osteoclasts) of bone sections in mouse bone metastasis model. Format: in vivo. As to conditions: Fig. 7N.
Data set [4] addresses T1, recombinant human legumain (重组人legumain蛋白(rhLegumain)) (Homo sapiens, UniProt Q99538).
T1 construct: 30ng/μl活化的rhLegumain在测定缓冲液; purchased 2199-CY
T1 sequence (Q99538 18-323 limits assumed): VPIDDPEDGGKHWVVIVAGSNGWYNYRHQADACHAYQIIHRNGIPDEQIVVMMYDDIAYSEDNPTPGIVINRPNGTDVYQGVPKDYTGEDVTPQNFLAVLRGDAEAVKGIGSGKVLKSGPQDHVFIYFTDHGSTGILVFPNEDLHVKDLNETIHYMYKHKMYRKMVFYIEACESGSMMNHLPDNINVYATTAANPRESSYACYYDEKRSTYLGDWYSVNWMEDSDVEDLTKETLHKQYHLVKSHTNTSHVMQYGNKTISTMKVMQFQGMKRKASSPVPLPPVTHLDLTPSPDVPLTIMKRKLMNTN
The experiment in a line: AEP activity assay with recombinant human legumain, substrate Z-AAN-AMC. The data set is classed as biochemical. The following applies: Fig. 2E.

Data set [5] addresses T2, endogenous AEP of 293L cells (293L细胞, AEP的内源性酶活性) (Homo sapiens, UniProt Q99538).
T2 construct: 验证抑制剂是否能有效抑制AEP的内源性酶活性; endogenous in cells; host or cells: 293L cells
T2 sequence (Q99538 18-433): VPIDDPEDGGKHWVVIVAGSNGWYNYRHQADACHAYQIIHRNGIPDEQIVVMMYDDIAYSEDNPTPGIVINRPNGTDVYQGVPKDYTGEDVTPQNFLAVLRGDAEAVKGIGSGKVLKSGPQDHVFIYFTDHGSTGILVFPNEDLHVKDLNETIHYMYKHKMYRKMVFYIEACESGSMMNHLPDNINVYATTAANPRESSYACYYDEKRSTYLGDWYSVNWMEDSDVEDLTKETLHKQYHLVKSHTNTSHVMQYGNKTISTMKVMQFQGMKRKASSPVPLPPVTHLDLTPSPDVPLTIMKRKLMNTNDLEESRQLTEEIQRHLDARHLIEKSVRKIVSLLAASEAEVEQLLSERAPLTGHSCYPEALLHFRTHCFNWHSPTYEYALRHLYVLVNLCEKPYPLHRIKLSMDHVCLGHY
Kind of data set: Endogenous AEP activity in cell lysate and medium of 293L cells. Format: cell-based. The following applies: 293L cells cultured with different doses of inhibitor.

The test system of data set [6] is AEP (breast cancer 4T1.2 cells, 乳腺癌4T1.2细胞). The experiment in a line: Immunoblot of AEP expression in 4T1.2 cells. The data set is classed as cell-based, mouse. The following applies: 1 μM, 96h, vs control (0nM), p<0.05.
The test system of a further data set is E-cadherin. The experiment in a line: Immunoblot of E-cadherin expression in 4T1.2 cells (EMT). Format: cell-based, mouse. The following applies: 100nM and 1μM, 96h.
In the next data set the test system is Snail. The experiment in a line: Immunoblot of Snail expression in 4T1.2 cells (EMT). Format: cell-based, mouse. As to conditions: 100nM and 1μM, 96h.
Another data set relates to MMP-9. The experiment in a line: Immunoblot of MMP-9 expression in 4T1.2 cells (EMT). The data set is classed as cell-based, mouse. The following applies: 100nM and 1μM, 96h. Background: A western blot detects proteins with antibodies after separation by electrophoresis.
The test system of another data set is 4T1.2 cells (4T1.2细胞). Kind of data set: Cell scratch (migration) assay, 4T1.2. Format: cell-based, mouse. The following applies: 4T1.2, scratch assay, concentration-dependent.
The test system of data set [7] is breast cancer MDA-MB-231 cells (乳腺癌MDA-MB-231细胞). Kind of data set: Cell scratch (migration) assay, MDA-MB-231. The data set is classed as cell-based, human. As to conditions: MDA-MB-231, scratch assay, concentration-dependent.
For data set [8], the system named is breast cancer 4T1.2 cells (乳腺癌4T1.2细胞). The experiment in a line: Transwell Matrigel invasion assay, 4T1.2. As to conditions: 4T1.2, Transwell Matrigel, 12h, concentration-dependent. Format: cell-based, mouse.
The test system is the same in data set [9]. Kind of data set: Survival of BALB/C mice with subcutaneous 4T1.2 tumors. As to conditions: inhibitor given in combination with 0.44mg/ml epirubicin. Format: in vivo, mouse.
In data set [10] the test system is human breast cancer cells MDA-MB-231 (人乳腺癌细胞MDA-MB-231).
Data set [11] deals with mouse highly metastatic breast cancer cells 4T1.2 (小鼠高转移性乳腺癌细胞4T1.2).

Consider `COc1cccc2c1C(=O)c1c(O)c3c(c(O)c1C2=O)C[C@@](O)(C(=O)CO)C[C@@H]3O[C@H]1C[C@H](N)[C@@H](O)[C@H](C)O1` [表柔比星], for which the “bone tumor growth (bioluminescence)” value in data set [1] is “所有小鼠的胫骨近端、股骨或背侧脊柱都有肿瘤生长”. The “bone structure and bone erosion (X-ray CT)” value in [2] is “骨结构不完整,存在骨侵蚀”. Also, the “tumor cell invasion of bone tissue (HE staining)” value in data set [3] was “肿瘤细胞突破了骨组织,呈现侵袭状”. Moreover, the “increase in osteoclast number in the epirubicin group compared with the 2 inhibitor-treated groups” value in the data set on osteoclasts (破骨细胞) (0.44mg/ml epirubicin alone) is reported as 3.6 倍 (fold).

Regarding “CH2CH[N(CH2CH3)2]CON(COCH2Cl)CH2CONH2 [化合物①]”, the “AEP enzyme activity over time” value in data set [4] (100nM inhibitor vs control (0nM), p<0.05, pH5.0) was “显著抑制”; in data set [4] (1 μM inhibitor vs control (0nM), p<0.01, pH5.0) it was “显著抑制”. Also, the “AEP enzyme activity in cell culture medium” value in data set [5] was “能够以剂量依赖性方式抑制”. Besides, the “decrease of AEP expression” value in [6] is given as 82.31%. The E-cadherin expression result in the data set on E-cadherin is “表达上调”. For the same compound, the Snail expression result with Snail is “表达下调”. Besides, in the data set with MMP-9, the MMP-9 expression result is recorded as “表达下调”. Further, the cell migration ability entry (in the data set with 4T1.2 cells (4T1.2细胞); in [7]) was “减弱” in each case. The “number of invading cells” value in data set [8] is given as “减少各细胞的侵袭细胞数目”. Also, in data set [9], the “survival of tumor mice” value was “明显延长”. In the data set with osteoclasts (破骨细胞) (control (PBS) relative to groups given epirubicin + inhibitor), the “increase in osteoclast number in the control group compared with the 2 inhibitor-treated groups” value is recorded as 4 倍 (fold). Further, the “cell viability / growth compared with control” value in [10] and in data set [11] was “与对照组相差很小” in each case.
